Tests used:
[1] = molecular target: Sodium-dependent noradrenaline transporter (Homo sapiens, UniProt P23975); assay: In Vitro Pharmacology Assay
Experimental: (§1) The monoamine transporters inhibitory activities of selected cycloalkylmethylamines of Formula (I) are reported herein. The compounds were evaluated using well established radioligand binding assays protocols (Galli, A. et al., J. Exp. Biol. 1995, 198, 2197-2212; Giros, B. et al., Trends Pharmcol. Sci. 1993, 14, 43-49; Gu, H. et al., J. Biol. Chem. 1994, 269(10), 7124-7130; Shearman, L. P. et al, Am. J. Physiol., 1998, 275(6 Pt 1), C1621-1629; Wolf, W. A. et al., J. Biol. Chem. 1992, 267(29), 20820-20825). The human recombinant transporter proteins dopamine (DAT), norepinephrine (NET) and serotonin (SERT) were selected for the in vitro assays. The radioligand binding assays were carried out at 11 different test concentrations 0.1 nM to 1 μM.

[2] = molecular target: Sodium-dependent serotonin transporter (Homo sapiens, UniProt P31645); assay: In Vitro Pharmacology Assay
Sequence of Sodium-dependent serotonin transporter (P31645 whole entry): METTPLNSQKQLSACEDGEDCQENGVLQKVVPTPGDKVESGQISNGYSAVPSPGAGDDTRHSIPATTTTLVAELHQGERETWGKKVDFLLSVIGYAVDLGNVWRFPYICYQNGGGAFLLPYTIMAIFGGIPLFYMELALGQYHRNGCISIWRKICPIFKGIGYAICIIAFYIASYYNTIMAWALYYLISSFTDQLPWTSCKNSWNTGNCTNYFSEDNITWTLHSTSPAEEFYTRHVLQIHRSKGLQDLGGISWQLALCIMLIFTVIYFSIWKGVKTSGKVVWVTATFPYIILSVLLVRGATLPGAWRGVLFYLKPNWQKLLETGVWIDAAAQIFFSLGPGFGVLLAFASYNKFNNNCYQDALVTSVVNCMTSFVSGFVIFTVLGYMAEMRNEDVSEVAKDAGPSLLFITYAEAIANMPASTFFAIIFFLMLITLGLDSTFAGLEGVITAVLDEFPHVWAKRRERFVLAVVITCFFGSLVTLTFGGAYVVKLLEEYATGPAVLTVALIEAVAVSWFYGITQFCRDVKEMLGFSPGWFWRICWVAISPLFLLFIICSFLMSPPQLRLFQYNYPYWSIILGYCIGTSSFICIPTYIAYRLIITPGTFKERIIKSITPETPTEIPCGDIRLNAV
Experimental: as §1

Sequence of Sodium-dependent noradrenaline transporter (P23975 whole entry): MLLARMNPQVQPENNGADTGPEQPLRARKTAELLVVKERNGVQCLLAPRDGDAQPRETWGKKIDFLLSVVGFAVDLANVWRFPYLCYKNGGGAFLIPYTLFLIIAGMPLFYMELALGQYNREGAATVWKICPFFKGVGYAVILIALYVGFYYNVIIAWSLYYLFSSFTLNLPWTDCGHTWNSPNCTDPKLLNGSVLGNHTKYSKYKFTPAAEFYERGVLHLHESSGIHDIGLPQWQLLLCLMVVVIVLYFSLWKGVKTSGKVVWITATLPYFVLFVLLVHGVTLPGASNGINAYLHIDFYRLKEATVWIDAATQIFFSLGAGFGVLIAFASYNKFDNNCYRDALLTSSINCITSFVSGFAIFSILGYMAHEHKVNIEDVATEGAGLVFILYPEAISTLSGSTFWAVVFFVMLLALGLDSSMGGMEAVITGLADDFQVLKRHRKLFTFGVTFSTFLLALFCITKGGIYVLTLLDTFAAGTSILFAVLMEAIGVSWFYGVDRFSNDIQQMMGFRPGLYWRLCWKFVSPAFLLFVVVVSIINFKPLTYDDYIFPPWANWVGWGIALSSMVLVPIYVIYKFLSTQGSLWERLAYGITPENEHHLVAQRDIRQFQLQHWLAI

In the case of `CCSCCNC(CC(C)C)C1(c2ccc(Cl)c(Cl)c2)CCC1` (configuration not stated) [US10035761, Compound 13f], the Ki [1] is reported as 119 nM and the Ki [2] is reported as 224 nM.

From BindingDB's records for patent US10035761 (Revivia Pharmaceuticals, Inc., 2018)
